Measured values: US20250163045A1, “COMPOUNDS FOR TREATMENT OF HAIR LOSS” (Pelage Pharmaceuticals, Inc., priority 2021, published 2025)

Experiment: Solubility of compounds in topical formulations (stirred, visual dissolution)
Assay type: physicochemical
Settings: for Solubility in Non-Aqueous Formulation: Non-Aqueous Formulation (50% PEG400, 15% Transcutol P, 25% ethanol, 10% DMSO)
From the text: Several formulations were used to evaluate the solubility of the various compounds. Although any suitable pharmaceutical formulation may be used for the compounds, formulations such as those described below are suitable for administration of the compounds to the hair or scalp of a mammal such as a human being. The formulation may be sterilized before applying to a mammal such as a human being. • A Non-Aqueous Formulation, containing 50% PEG400, 15% Transcutol® P, 25% ethanol, and 10% DMSO was manufactured using the following general process: 10 g of PEG400, 3 g of Transcutol® P, 5 g of ethanol, and 2 g of DMSO were added to a clear vial. The mixture was then stirred using a stir bar until homogenous. • Aqueous Formulation 1, containing 10% PEG400, 20% Transcutol® HP, 45% ethanol, and 25% water was manufactured using the following general process: in a large amber pyrex bottle, 1) 19.98 g of PEG400 was added; 2) 40.07 g of Transcutol® HP was added; 3) 90 g of ethanol was added; 4) 50.03 g of water was added; and 5) the mixture was stirred using a magnetic stir bar for 30 mins at 800 rpm. • Aqueous Formulation 2, containing 10% propylene glycol, 20% Transcutol® HP, 45% ethanol, and 25% water was manufactured using the following process: in a large amber pyrex bottle, 1) 10.03 g propylene glycol was added; 2) 20.03 g Transcutol® HP was added; 3) 44.99 g ethanol was added; 4) 25.02 g water was added; and 5) the mixture was stirred using a magnetic stir bar for 30 mins at 800 rpm.
The solubilities of several compounds shown below in the described formulations are indicated below.
• Aqueous Formulation 1: 0.5 mg Reference Compound and 9.9996 g Aqueous Formulation 1 (0.005% w/w) were stirred at 600 RPM for 1 hour. The Reference Compound remained undissolved in 1 hour; • Aqueous Formulation 2: 0.5 mg Reference Compound and 10.0006 g Aqueous Formulation 2 (0.005% w/w) were stirred at 600 RPM for 1 hour. […]

## N#C/C(=C\c1cn(-c2cccc(C(F)(F)F)c2)c2ncccc12)C(=O)O [Compound 3, (E)-2-cyano-3-(1-(3-(trifluoromethyl)phenyl)-1H-pyrrolo[2,3-b]pyridin-3-yl)acrylic acid]
Dissolved / remained undissolved in 1 hour
  Solubility in Non-Aqueous Formulation: ≥ 0.1 % w/w
Remained undissolved in 24 hours
  Solubility in Non-Aqueous Formulation: < 0.2 % w/w

## N#C/C(=C\c1cn(Cc2cc(C(F)(F)F)cc(C(F)(F)F)c2)c2ncccc12)C(=O)O [Reference Compound, (E)-3-(1-(3,5-bis(trifluoromethyl)benzyl)-1H-pyrrolo[2,3-b]pyridin-3-yl)-2-cyanoacrylic acid, reference compound]
Aqueous Formulation 1 (10% PEG400, 20% Transcutol HP, 45% ethanol, 25% water), stirred at 600 RPM for 1 hour
  Solubility in Aqueous Formulation 1: < 0.005 % w/w
